Data from US20210343946A1, “INFRARED ABSORBERS, INFRARED ABSORBING/BLOCKING FILMS AND PHOTOELECTRIC DEVICES AND ORGANIC SENSORS AND ELECTRONIC DEVICES” (Samsung Electronics Co., Ltd., priority 2020, published 2021).

How the values were obtained:
[1] = Light absorption characteristics in a solution state (UV-Vis-NIR spectrometer); format: physicochemical; settings: for λmax (nm) (solution): 1×10^−5 M; for UV-vis: λmax: CH2Cl2 Solution, in synthesis example
Method: The compounds according to Synthesis Examples 1 to 5 in dichloromethane, the compounds according to Comparative Synthesis Examples 1 and 2 in toluene, and the compound of Comparative Synthesis Example 3 in chloroform are respectively dissolved at a concentration of 1×10^−5 M to prepare solutions, and light absorption characteristics of the compounds in a solution state are evaluated. The light absorption characteristics are evaluated by using an UV-Vis-NIR spectrometer (UV-3600 Plus, Shimadzu Corp.) to measure a maximum absorption wavelength (λmax).

[2] = Light absorption characteristics in a thin film state (UV-Vis-NIR spectrometer); format: physicochemical; settings: thin film spin-coated from chloroform on glass substrate
Method: In addition, the compounds of Synthesis Examples 1 to 5 are respectively dissolved in chloroform and coated on a glass substrate at 800 rpm for 60 seconds and at 400 rpm for 5 seconds with a spin coater, and the light absorption characteristics thereof in a thin film state are evaluated. The light absorption characteristics are evaluated by measuring a maximum absorption wavelength (λmax) by using a UV-Vis-NIR spectrometer (UV-3600 Plus, Shimadzu Corp.).

| λmax (nm) (solution) ([1]; in toluene) | SMILES | λmax (nm) (thin film) [2] | UV-vis: λmax [1] [nm] | λmax (nm) (solution) ([1]; in dichloromethane) |
| --- | --- | --- | --- | --- |
| 920 | CCCCCCCCOc1ccc(N(c2ccc(OCCCCCCCC)cc2)c2ccc(-c3ccc(-c4c5c(c(-c6ccc(-c7ccc(N(c8ccc(OCCCCCCCC)cc8)c8ccc(OCCCCCCCC)cc8)cc7)s6)c6nsnc46)N=S=N5)s3)cc2)cc1 [Comparative Synthesis Example 1, reference compound] |  |  |  |
| 848 | CCCCCCCCC1(CCCCCCCC)c2ccccc2-c2ccc(-c3ccc(-c4c5c(c(-c6ccc(-c7ccc8c(c7)C(CCCCCCCC)(CCCCCCCC)c7ccccc7-8)s6)c6nsnc46)N=S=N5)s3)cc21 [Comparative Synthesis Example 2, reference compound] |  |  |  |
|  | CCCCCCOc1cc(-c2c3c(c(-c4cc(OCCCCCC)c(-c5cc6c(s5)c5sc(CCCCCC)cc5n6CCCCCC)s4)c4nsnc24)N=[Se]=N3)sc1-c1cc2c(s1)c1sc(CCCCCC)cc1n2CCCCCC [Synthesis Example 1] | 1226 | 1256 | 1256 |
|  | CCCCCCOc1cc(-c2c3c(c(-c4cc(OCCCCCC)c(-c5cc6c(s5)c5sc(CCCCCC)cc5n6CCCCCC)s4)c4nsnc24)N=S=N3)sc1-c1cc2c(s1)c1sc(CCCCCC)cc1n2CCCCCC [Synthesis Example 2] | 1120 | 1114 | 1076 |
|  | CCCCCCOc1cc(-c2c3nsnc3c(-c3cc(OCCCCCC)c(-c4cc5c(s4)c4sc(CCCCCC)cc4n5CCCCCC)s3)c3nc4c5ncccc5c5cccnc5c4nc23)sc1-c1cc2c(s1)c1sc(CCCCCC)cc1n2CCCCCC [Synthesis Example 3] | 1166 | 1143 | 1143 |
|  | CCCCCCOc1cc(-c2c3nsnc3c(-c3cc(OCCCCCC)c(-c4cc5c(s4)c4sc(CCCCCC)cc4n5CCCCCC)s3)c3nc4c5ccccc5c5ccccc5c4nc23)sc1-c1cc2c(s1)c1sc(CCCCCC)cc1n2CCCCCC [Synthesis Example 4] | 1058 | 1020 | 1020 |
|  | CCCCCCOc1cc(-c2c3c(c(-c4cc(OCCCCCC)c(-c5cc6c(s5)c5sc(CCCCCC)cc5n6CCCCCC)s4)c4n[se]nc24)N=[Se]=N3)sc1-c1cc2c(s1)c1sc(CCCCCC)cc1n2CCCCCC [Synthesis Example 5] | 1285 | 1376 | 1376 |
